# Results as given in patent US10156521B2, “Red fluorescent aldehyde dehydrogenase (ALDH) substrate” (THE JOHNS HOPKINS UNIVERSITY, priority 2013, dated 2018).
# Assay: Excitation and emission profiles by spectrofluorophotometer
# Assay type: physicochemical
# Conditions: 100% ethanol
# Method: FIGS. 2a-2c show the excitation and emission profiles of candidate ALDH substrates. (a) AldeRed 493 aldehyde diethyl acetal, (b) AldeRed 588 aldehyde diethyl acetal, (c) AldeRed 659 aldehyde diethyl acetal. All the compounds were dissolved in 100% ethanol and both excitation and emission profiles were measured in 100% ethanol. The emission spectrum was measured with excitation at 493 nm for AldeRed 493 aldehyde diethyl acetal, at 560 nm for AldeRed 588, and at 650 nm for AldeRed 659-A. Blue line: excitation spectrum; red line: emission spectrum;
# Reagents and Analyses. BODIPY® 576/589 succinimidyl ester and BODIPY® 650/665 succinimidyl ester were purchased from Life Technologies Inc., (Grand Island, N.Y.). (E)-4-(4-(dimethylamino)styryl)-1-(3-isothiocyanatopropyl)pyridin-1-ium chloride 1 was synthesized analogously to the previously reported di-butyl analog. Hassner, A., et al., J Org. Chem. 49, 2546-2551 (1984). Chemicals and solvents for synthesis and high-performance liquid chromatography (HPLC) were acquired from Sigma-Aldrich (Milwaukee, Wis.) or Fisher Scientific (Pittsburgh, Pa.), and used without further purification. HPLC was performed on an Agilent Prostar System equipped with a 325 Variable wavelength detector and controlled by Galaxie Software using a Phenomenex 4.6×250 mm Luna C18, 10 micron column. AldeRed 493 aldehyde diethyl acetal (FIGS. 14a-14b) and AldeRed 493-A (FIGS. 14c-14d) were chromatographed using Method 1. AldeRed 588 aldehyde diethyl acetal (FIGS. 15a-15b), AldeRed 588-A (FIGS. 15c-15d), AldeRed 659 aldehyde diethyl acetal (FIGS. 16a-16b), AldeRed 659-A (FIGS. 16c-16d) were chromatographed using Method 2. Method 1: Solvent A: 100% water; Solvent B: 100% methanol; 0-5 min 100% A, 5-25 min linear gradient from 100% A to 100% B, 25-30 min 100% B, 30-35 min linear gradient from 100% B to 100% A, 35-38 min 100% A, 2 mL/min. Method 2: Solvent A: 100% water; Solvent B: 100% acetonitrile; 0-20 min linear gradient from 90% A/10% B to 10% A/90% B; 20-25 min 10% A/90% B, 25-30 min linear gradient from 10% A/90% B to 90% A/10% B, 2 mL/min. ^1H-NMR spectra were obtained on a Bruker Avance 400 MHz Spectrometer. High resolution mass spectra were obtained by the University of Notre Dame Mass Spectrometry & Proteomics Facility (Notre Dame, Ind.) using ESI either by direct infusion on a Bruker micrOTOF-II or by LC elution via an ultra-high pressure Dionex® RSLC with C18 column coupled with a Bruker micrOTOF-Q II. The excitation and emission profiles of synthesized products were measured using a spectrofluorophotometer (Shimadzu, RF-5301pc, Columbia, Md.).
# Three representative substrates of ALDH containing fluorophores that emit in the red region of the spectrum were synthesized (FIG. 1). […]
SMILES,Maximum emission wavelength [nm],Maximum excitation wavelength [nm]
CCOC(CNC(=S)NCCC[n+]1ccc(C=Cc2ccc(N(C)C)cc2)cc1)OCC.[Cl-] [compound 4],590,493
CCOC(CNC(=O)CCc1ccc2n1[B-](F)(F)[N+]1=C(c3ccc[nH]3)C=CC1=C2)OCC [compound 5],599,588
